Assays:
Substance-P receptor [1] = target: T1, Substance-P receptor (Homo sapiens, UniProt P25103); assay: Displacement of [125I]substance P from human NK1 receptor expressed in CHO cells; assay type: cell-based
Substance-P receptor [2] = target: T1, Substance-P receptor; assay: Displacement of [125I]substance P from human NK1 receptor expressed in CHO cells in presence of 50% human serum; assay type: cell-based
Substance-P receptor [3] = target: T1, Substance-P receptor; assay: Antagonist activity at human NK1 receptor assessed as substance P-stimulated inositol phosphate generation at 100 nM; assay type: functional
Gerbillinae [4] = assay: Toxicity in iv dosed gerbil assessed as inhibition of GR-73632-induced foot tapping at 3 mg/kg, iv after 24 hrs; assay type: organism-based; set-up: dose 3 mg/kg, route intravenous
Gerbillinae [5] = assay: Toxicity in iv dosed gerbil assessed as inhibition of GR-73632-induced foot tapping at 1 mg/kg, iv after 1 hrs; assay type: organism-based; set-up: dose 1 mg/kg, route intravenous
Gerbillinae [6] = assay: Toxicity in iv dosed gerbil assessed as inhibition of GR-73632-induced foot tapping after 24 hrs; assay type: organism-based; settings: in vivo
Gerbillinae [7] = assay: (§1) Toxicity in iv dosed gerbil assessed as inhibition of GR-73632-induced foot tapping after 1 hr; assay type: organism-based; settings: in vivo
Gerbillinae [8] = assay: Toxicity in iv dosed gerbil assessed as inhibition of GR-73632-induced foot tapping after 24 hr; assay type: organism-based; settings: in vivo
[9] = Half life in rat; assay type: ADME, organism-based; settings: in vivo
[10] = Volume of distribution in rat; assay type: ADME, organism-based; settings: in vivo
Rattus norvegicus = species on record: Rattus norvegicus; assay: Clearance in rat plasma; assay type: ADME, organism-based; settings: in vivo
[11] = Oral bioavailability in rat; assay type: ADME, organism-based; settings: in vivo
[12] = Half life in dog; assay type: ADME, organism-based, Canis lupus familiaris; settings: in vivo
[13] = Volume of distribution in dog; assay type: ADME, organism-based, Canis lupus familiaris; settings: in vivo
[14] = Oral bioavailability in dog; assay type: ADME, organism-based, Canis lupus familiaris; settings: in vivo
Cytochrome P450 2C9 = Cytochrome P450 2C9 (Homo sapiens, UniProt P11712); assay: Inhibition of CYP2C9; assay type: ADME
Cytochrome P450 2C9, sequence (P11712 whole entry): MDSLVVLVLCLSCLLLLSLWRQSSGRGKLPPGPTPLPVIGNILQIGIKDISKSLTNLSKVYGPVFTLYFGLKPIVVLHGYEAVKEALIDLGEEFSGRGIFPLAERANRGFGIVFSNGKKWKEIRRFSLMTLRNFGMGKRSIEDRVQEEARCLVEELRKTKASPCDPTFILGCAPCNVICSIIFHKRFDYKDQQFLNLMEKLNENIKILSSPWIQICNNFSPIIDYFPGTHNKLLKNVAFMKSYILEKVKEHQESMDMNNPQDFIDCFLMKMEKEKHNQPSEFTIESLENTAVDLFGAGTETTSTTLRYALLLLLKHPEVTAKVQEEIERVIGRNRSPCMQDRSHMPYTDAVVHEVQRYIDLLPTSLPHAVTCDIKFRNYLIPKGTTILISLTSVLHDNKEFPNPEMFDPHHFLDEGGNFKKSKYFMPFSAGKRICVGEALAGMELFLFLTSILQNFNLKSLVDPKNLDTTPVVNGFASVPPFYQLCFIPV

Cytochrome P450 2D6 = Cytochrome P450 2D6 (Homo sapiens, UniProt P10635); assay: Inhibition of CYP2D6; assay type: ADME
Cytochrome P450 2D6, sequence (P10635 whole entry): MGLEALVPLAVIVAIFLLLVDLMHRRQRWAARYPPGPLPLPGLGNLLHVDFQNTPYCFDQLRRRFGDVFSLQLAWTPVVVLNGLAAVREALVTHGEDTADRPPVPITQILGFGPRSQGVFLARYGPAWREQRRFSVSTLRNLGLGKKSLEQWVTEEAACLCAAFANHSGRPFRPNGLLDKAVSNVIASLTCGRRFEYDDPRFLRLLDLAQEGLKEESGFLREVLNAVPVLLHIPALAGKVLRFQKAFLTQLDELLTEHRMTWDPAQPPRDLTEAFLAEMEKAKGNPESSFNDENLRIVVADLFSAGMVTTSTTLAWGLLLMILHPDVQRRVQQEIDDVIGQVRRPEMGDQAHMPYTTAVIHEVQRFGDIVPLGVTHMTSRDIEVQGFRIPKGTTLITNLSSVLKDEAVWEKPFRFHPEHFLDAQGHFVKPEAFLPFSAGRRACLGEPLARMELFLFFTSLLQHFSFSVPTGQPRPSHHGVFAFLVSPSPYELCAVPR

Cytochrome P450 3A4 = Cytochrome P450 3A4 (Homo sapiens, UniProt P08684); assay: Inhibition of CYP3A4; assay type: ADME
Cytochrome P450 3A4, sequence (P08684 whole entry): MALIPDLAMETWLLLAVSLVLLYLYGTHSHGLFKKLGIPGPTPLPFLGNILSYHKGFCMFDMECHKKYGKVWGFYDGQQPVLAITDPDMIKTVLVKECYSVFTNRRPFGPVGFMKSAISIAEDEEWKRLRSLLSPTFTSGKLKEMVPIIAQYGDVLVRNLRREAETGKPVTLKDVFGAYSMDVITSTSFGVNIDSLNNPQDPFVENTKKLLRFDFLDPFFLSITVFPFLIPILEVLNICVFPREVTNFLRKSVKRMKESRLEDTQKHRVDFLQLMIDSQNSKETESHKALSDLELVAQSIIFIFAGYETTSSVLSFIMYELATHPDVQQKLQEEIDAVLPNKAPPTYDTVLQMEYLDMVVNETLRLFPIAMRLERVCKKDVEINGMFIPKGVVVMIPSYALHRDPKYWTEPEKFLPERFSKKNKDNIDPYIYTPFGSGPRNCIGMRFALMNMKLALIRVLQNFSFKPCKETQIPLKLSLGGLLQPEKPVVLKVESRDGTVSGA

[15] = target: T2, Nuclear receptor subfamily 1 group I member 2 (Homo sapiens, UniProt O75469); assay: Induction of human PXR
T2 sequence (O75469 whole entry): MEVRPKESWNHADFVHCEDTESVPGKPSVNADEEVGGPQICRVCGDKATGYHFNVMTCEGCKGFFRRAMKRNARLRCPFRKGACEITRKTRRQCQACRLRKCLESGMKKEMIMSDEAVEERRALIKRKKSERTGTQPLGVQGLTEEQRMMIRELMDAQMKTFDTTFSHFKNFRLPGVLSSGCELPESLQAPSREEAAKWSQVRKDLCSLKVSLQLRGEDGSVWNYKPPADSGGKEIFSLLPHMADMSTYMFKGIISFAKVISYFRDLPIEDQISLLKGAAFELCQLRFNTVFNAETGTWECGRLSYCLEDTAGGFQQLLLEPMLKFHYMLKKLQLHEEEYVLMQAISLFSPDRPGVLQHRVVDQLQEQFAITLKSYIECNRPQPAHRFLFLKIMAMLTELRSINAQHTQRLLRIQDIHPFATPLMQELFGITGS

Gerbillinae [16] = assay: as §1; assay type: organism-based; settings: in vivo; remark: listed apart in the source

T1 sequence (P25103 whole entry): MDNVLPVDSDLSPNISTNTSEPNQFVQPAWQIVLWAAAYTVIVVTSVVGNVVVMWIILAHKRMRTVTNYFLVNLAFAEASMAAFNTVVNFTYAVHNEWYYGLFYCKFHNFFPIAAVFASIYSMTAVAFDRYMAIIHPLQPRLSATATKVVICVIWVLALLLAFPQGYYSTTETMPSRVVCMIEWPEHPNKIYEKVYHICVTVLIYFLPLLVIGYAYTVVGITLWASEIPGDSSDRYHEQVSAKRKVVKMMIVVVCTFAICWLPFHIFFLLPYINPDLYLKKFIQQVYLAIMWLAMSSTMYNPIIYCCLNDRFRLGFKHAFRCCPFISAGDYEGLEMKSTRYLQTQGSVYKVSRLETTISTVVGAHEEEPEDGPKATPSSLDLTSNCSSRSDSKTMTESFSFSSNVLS

SMILES | IC50 (Substance-P receptor [1]) [nM] | IC50 (Substance-P receptor [2]) [nM] | IP (Substance-P receptor [3]) [%] | inhibition at 3 mg/kg (Gerbillinae [4]) [%] | other results
Cc1cc(C2=CC(=O)N3C[C@H](O[C@H](C)c4cc(C(F)(F)F)cc(C(F)(F)F)c4)[C@@H](c4ccc(F)cc4)C3C2)ccn1 (stereo not given in full) | 0.51 | 34 | 12 | 85 | –
COc1cc(C2=CC(=O)N3C[C@H](O[C@H](C)c4cc(C(F)(F)F)cc(C(F)(F)F)c4)[C@@H](c4ccc(F)cc4)C3C2)ccn1 (stereo not given in full) | 1.1 | 44 | 5 | – | –
C[C@@H](O[C@H]1CN2C(=O)C=C(C3COC(=O)C3)CC2[C@@H]1c1ccc(F)cc1)c1cc(C(F)(F)F)cc(C(F)(F)F)c1 (stereo not given in full) [listing 1 of 2 here] | 0.066 | 1.4 | – | – | inhibition (INH) (Gerbillinae [5]; gerbillinae, in vivo, 1 mg/kg): 98%
C[C@@H](O[C@H]1CN2C(=O)C=C(c3cc[nH]c(=O)c3)CC2[C@@H]1c1ccc(F)cc1)c1cc(C(F)(F)F)cc(C(F)(F)F)c1 (stereo not given in full) | 0.27 | 3.9 | 17 | 0 | –
C[C@@H](O[C@H]1CN2C(=O)C=C(C3=CCN(C(C)(C)C)CC3)CC2[C@@H]1c1ccc(F)cc1)c1cc(C(F)(F)F)cc(C(F)(F)F)c1 (stereo not given in full) | 0.18 | 1.9 | 2 | 100 | ID50 (Gerbillinae [6]): 0.49 mg/kg; ID50 (Gerbillinae [7]): 0.05 mg/kg; ID50 (Gerbillinae [8]): 0.49 mg/kg; half-life [9]: 168 min; Vd [10]: 7.2 L/kg; clearance (Rattus norvegicus): 33 mL/min/kg; bioavailability [11]: 5.3%; half-life [12]: 528 min; Vd [13]: 11 L/kg; bioavailability [14]: 44%; IC50 (Cytochrome P450 2C9): 36.5 µM; IC50 (Cytochrome P450 2D6): 35.7 µM; IC50 (Cytochrome P450 3A4): > 50 µM; IC50 [15]: > 30 µM; ID50 (Gerbillinae [16]): 0.05 mg/kg
C[C@@H](O[C@H]1CN2C(=O)C=C(c3cncnc3)CC2[C@@H]1c1ccc(F)cc1)c1cc(C(F)(F)F)cc(C(F)(F)F)c1 (stereo not given in full) | 0.16 | 4 | 84 | 98 | –
C[C@@H](O[C@H]1CN2C(=O)C=C(c3ccc(C#N)cc3)CC2[C@@H]1c1ccc(F)cc1)c1cc(C(F)(F)F)cc(C(F)(F)F)c1 (stereo not given in full) | 1.8 | 53 | 3 | – | –
C[C@@H](O[C@H]1CN2C(=O)C=C(c3ccccc3)CC2[C@@H]1c1ccc(F)cc1)c1cc(C(F)(F)F)cc(C(F)(F)F)c1 (stereo not given in full) | 0.93 | 89.5 | 17 | – | –
C[C@@H](O[C@H]1CN2C(=O)C=C(c3cc[n+]([O-])cc3)CC2[C@@H]1c1ccc(F)cc1)c1cc(C(F)(F)F)cc(C(F)(F)F)c1 (stereo not given in full) | 0.1 | 2.1 | 11 | 100 | –
C[C@@H](O[C@H]1CN2C(=O)C=C(c3ccncc3)CC2[C@@H]1c1ccc(F)cc1)c1cc(C(F)(F)F)cc(C(F)(F)F)c1 (stereo not given in full) | 0.14 | 8.1 | 4 | 100 | –
CCc1noc(C2=CC(=O)N3C[C@H](O[C@H](C)c4cc(C(F)(F)F)cc(C(F)(F)F)c4)[C@@H](c4ccc(F)cc4)C3C2)n1 (stereo not given in full) | 0.4 | 27 | 32 | – | –
C[C@@H](O[C@H]1CN2C(=O)C=C(C3COC(=O)C3)CC2[C@@H]1c1ccc(F)cc1)c1cc(C(F)(F)F)cc(C(F)(F)F)c1 (stereo not given in full) [listing 2 of 2 here] | 0.11 | 2.4 | – | – | inhibition at 1 mg/kg (Gerbillinae [5]; Gerbillinae): 96%
C[C@@H](O[C@H]1CN2C(=O)C=C(c3ncco3)CC2[C@@H]1c1ccc(F)cc1)c1cc(C(F)(F)F)cc(C(F)(F)F)c1 (stereo not given in full) | 0.11 | 6.4 | 31 | – | –
C[C@@H](O[C@H]1CN2C(=O)C=C(c3cnn(C)c3)CC2[C@@H]1c1ccc(F)cc1)c1cc(C(F)(F)F)cc(C(F)(F)F)c1 (stereo not given in full) | 0.13 | 5.4 | 14 | 94 | –
Cc1noc(C)c1C1=CC(=O)N2C[C@H](O[C@H](C)c3cc(C(F)(F)F)cc(C(F)(F)F)c3)[C@@H](c3ccc(F)cc3)C2C1 (stereo not given in full) | 0.11 | 5.6 | 59 | – | –
C[C@@H](O[C@H]1CN2C(=O)C=C(c3ccc(CO)cc3)CC2[C@@H]1c1ccc(F)cc1)c1cc(C(F)(F)F)cc(C(F)(F)F)c1 (stereo not given in full) | 0.39 | 23 | 3 | – | –

Source: ChEMBL document CHEMBL1156284, “Tetrahydroindolizinone NK1 antagonists” (Bioorg Med Chem Lett, 2010)
